The record followed here is patent publication US20230295166A1, “ATR INHIBITORS AND USES THEREOF” (ANTENGENE DISCOVERY LIMITED, priority 2020, published 2023).

Where only a bound is given, the exact number is not on record here.

For one experiment, the target named is ATR kinase (Homo sapiens (Human), UniProt Q13535). Briefly: ATR inhibition assay (mobility shift assay, phosphorylation of FAM-RAD17). It counts as biochemical. The note with it: ATR kinase (Eurofins), substrate FAM-RAD17, mobility shift. Here is the method:
Assay 1: ATR Inhibition Assay
Detection of ATR kinase activity utilized the Mobility shift assay to measure the phosphorylation of the substrate protein FAM-RAD17 (GL, Cat. No. 514318, Lot. No. P19042-MJ524315). The assay was developed and conducted at Chempartner. All the test compounds were dissolved in 100% DMSO at concentration of 20 mM, then prepare compounds and conducted the assay as follows: • 1) Transfer 80 μl 20 mM compound to 40 μl of 100% DMSO in a 96-well plate. • 2) Serially dilute the compound by transferring 20 μl to 60 μl of 100% DMSO in the next well and so forth for a total of 10 concentrations. • 3) Add 100 μl of 100% DMSO to two empty wells for no compound control and no enzyme control in the same 96-well plate. Mark the plate as source plate. • 4) Transfer 40 μl of compound from source plate to a new 384-well plate as the intermediate plate. • 5) Transfer 60 nl compounds to assay plate by Echo. • 6) Add ATR kinase (Eurofins, Cat. No. 14-953, Lot. No. D14 JP007N) into Kinase base buffer (50 mM HEPES, pH 7.5; 0.0015% Brij-35; 0.01% Triton) to prepare 2× enzyme solution, then add 10 μl of 2× enzyme solution to each well of the 384-well assay plate, incubate at room temperature for 10 min. • 7) Add FAM-RAD17 and ATP (Sigma, Cat. No. A7699-1G, CAS No. 987-65-5) in the kinase base buffer to prepare 2×peptide solution, then add 10 μl to the assay plate. • 8) Incubate at 28° C. for specified period of time. Add 40 μl of stop buffer (100 mM HEPES, pH 7.5; 0.015% Brij-35; 0.2% Coating Reagent #3; 50 mM EDTA) to stop reaction. • 9) Collect data on Caliper. Convert conversion values to inhibition values.
Percent inhibition=(max−conversion)/(max−min)*100 wherein “max” stands for DMSO control; “min” stands for low control.
Fit the data in XLFit excel add-in version 5.4.0.8 to obtain IC50 values. Equation used is:
Y=Bottom+(Top−Bottom)/(1+(IC50/X)^HillSlope) wherein X means concentration in a format not transformed to logarithms.

In another experiment the test system is LoVo (CCL-229) cells. Put plainly: Tumor cell anti-proliferation assay (CTG assay). The experiment is classed as cell-based. The note with it: LoVo human colorectal cancer cells, 96 h, CellTiter-Glo. Here is the method: Assay 2: Tumor Cell Anti-proliferation Assay (CTG Assay)
Human colorectal cancer cells HT-29 (HTB-38) and LoVo (CCL-229) were selected for the CTG assay, the two cell lines were originally obtained from the American Type Culture Collection (ATCC). FBS and appropriate additives were added into base medium to prepare complete medium, then the cell layer was briefly rinsed with 0.25% (w/v) Trypsin-0.038% (w/v) EDTA solution to remove all traces of serum that contains trypsin inhibitor. After that, appropriate volume of Trypsin-EDTA solution was added to flask and cells under an inverted microscope were observed until cell layer was dispersed. At last, appropriate volume of complete growth medium was added and cells were aspirated by gently pipetting. Numbers were collected and counted with Vi-cell XR and cell density was adjusted, cells were seeded into 96-well opaque-walled clear bottom tissue-culture treated plates in the CO2 incubator for 20-24 hours. All the test compounds were at 10 mM in DMSO. Compounds were then added to the cell media in 3-fold serial dilutions, the final DMSO concentration was 0.5%. Plates were incubated for 96 h at 5% CO2, 37° C. Before the measurement, the appropriate volume of CellTiter-Glo Buffer was transferred into the amber bottle containing CellTiter-Glo substrate to reconstitute the lyophilized enzyme/substrate mixture, mixed gently, thereby forming the CellTiter-Glo Reagent (Promega Cat. No. G7573). The plate and its contents were equilibrated to room temperature for approximately 30 minutes, then 100 μL of CellTiter-Glo Reagent was added to the assay plate, the contents were mixed for 2 minutes on an orbital shaker to induce cell lysis, incubated at room temperature for 10 minutes to stabilize luminescent signal. At last the clear bottom was pasted with white back seal and luminescence was recorded with Enspire. IC50 and GI50 values were calculated with XLFit curve fitting software using 4 Parameter Logistic Model Y=Bottom+(Top−Bottom)/(1+(IC50/X)^HillSlope).

ATR kinase, sequence (Q13535 whole entry): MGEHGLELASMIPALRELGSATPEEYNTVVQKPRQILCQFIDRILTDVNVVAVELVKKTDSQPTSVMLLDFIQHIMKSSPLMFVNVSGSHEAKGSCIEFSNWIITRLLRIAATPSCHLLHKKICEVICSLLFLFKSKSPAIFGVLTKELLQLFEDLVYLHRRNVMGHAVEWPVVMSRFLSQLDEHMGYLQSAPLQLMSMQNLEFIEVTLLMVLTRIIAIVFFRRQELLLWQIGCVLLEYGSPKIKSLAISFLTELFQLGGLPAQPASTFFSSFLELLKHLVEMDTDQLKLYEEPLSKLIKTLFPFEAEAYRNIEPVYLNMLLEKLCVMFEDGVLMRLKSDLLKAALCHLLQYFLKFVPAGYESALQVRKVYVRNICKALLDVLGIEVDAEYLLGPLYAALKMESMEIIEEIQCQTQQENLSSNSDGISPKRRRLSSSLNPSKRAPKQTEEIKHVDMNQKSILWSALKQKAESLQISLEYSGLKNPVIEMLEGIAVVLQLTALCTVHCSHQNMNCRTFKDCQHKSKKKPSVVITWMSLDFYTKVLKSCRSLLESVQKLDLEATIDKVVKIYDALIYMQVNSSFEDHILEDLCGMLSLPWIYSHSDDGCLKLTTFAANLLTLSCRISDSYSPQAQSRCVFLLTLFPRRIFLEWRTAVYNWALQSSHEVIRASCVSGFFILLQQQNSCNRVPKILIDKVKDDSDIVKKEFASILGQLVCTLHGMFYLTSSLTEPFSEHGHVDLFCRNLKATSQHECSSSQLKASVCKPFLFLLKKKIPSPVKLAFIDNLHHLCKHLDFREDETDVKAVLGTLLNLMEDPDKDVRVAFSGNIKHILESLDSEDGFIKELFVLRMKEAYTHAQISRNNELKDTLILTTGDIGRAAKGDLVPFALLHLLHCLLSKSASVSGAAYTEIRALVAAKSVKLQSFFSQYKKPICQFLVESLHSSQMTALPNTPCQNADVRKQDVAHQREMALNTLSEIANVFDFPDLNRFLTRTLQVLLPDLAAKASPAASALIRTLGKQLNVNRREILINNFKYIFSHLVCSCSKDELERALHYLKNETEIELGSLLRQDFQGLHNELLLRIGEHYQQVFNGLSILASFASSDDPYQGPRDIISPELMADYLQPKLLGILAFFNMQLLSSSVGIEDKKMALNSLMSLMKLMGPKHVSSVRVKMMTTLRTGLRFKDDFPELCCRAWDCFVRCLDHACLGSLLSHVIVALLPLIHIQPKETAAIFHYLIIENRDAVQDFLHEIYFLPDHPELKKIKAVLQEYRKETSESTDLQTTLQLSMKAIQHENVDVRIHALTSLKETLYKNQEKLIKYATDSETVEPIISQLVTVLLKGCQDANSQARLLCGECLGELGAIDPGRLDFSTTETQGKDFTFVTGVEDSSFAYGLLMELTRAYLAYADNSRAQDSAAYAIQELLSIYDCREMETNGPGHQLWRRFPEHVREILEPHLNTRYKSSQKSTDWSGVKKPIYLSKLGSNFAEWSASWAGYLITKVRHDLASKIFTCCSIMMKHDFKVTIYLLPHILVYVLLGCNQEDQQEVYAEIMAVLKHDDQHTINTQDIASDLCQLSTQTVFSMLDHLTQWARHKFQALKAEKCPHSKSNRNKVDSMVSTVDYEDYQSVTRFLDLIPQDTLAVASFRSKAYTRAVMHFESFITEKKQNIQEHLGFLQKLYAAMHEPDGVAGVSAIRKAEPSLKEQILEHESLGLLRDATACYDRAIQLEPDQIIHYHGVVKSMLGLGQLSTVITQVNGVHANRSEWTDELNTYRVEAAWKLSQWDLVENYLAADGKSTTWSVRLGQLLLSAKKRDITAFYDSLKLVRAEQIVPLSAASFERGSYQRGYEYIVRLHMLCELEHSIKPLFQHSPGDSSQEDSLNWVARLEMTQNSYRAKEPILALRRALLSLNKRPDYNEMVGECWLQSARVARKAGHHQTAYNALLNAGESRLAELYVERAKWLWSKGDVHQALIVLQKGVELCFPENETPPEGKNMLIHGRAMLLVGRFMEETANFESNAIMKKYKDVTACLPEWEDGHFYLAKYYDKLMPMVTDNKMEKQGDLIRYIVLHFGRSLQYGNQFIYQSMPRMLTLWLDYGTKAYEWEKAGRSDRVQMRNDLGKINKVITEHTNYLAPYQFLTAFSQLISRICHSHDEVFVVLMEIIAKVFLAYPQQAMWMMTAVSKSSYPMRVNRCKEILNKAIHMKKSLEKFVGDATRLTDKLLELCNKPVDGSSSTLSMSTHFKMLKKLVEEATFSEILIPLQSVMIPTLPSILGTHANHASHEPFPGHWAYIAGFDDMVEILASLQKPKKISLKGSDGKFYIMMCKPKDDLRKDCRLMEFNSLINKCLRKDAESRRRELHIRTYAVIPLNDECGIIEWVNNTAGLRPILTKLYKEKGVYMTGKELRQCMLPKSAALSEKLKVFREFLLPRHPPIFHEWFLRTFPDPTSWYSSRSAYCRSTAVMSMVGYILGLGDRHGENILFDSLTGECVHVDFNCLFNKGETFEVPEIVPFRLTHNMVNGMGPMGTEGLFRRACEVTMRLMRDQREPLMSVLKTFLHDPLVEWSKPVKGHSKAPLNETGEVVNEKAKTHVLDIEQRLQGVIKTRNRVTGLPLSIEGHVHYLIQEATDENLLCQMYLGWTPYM
ATR kinase, sequence (Q8WXE1 whole entry partner): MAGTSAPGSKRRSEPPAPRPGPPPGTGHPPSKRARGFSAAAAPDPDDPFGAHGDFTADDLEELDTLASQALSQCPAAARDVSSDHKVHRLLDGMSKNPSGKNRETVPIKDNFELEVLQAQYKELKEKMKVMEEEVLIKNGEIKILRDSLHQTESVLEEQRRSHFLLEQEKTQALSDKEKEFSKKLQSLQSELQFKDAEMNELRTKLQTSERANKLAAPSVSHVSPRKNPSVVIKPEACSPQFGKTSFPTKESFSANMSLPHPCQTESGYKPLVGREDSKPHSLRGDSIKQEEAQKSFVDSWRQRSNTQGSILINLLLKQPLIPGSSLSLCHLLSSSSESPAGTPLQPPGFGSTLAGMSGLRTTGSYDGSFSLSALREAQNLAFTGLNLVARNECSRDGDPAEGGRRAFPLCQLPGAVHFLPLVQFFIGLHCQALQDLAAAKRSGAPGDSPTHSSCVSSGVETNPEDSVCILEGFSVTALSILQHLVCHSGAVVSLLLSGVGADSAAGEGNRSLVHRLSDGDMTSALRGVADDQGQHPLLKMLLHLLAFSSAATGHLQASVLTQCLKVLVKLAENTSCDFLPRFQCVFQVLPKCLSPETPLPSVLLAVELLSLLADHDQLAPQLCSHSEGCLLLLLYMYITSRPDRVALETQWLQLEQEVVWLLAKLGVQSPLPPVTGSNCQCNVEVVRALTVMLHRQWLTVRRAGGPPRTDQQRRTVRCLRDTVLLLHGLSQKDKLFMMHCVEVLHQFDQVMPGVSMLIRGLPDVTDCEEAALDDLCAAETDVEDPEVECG

On to `C[C@@H]1COCCN1c1cc(C2(C#N)CC2)c2snc(-c3ccn[nH]3)c2n1` [Example 51, (R)-1-(5-(3-methylmorpholino)-3-(1H-pyrazol-5-yl)isothiazolo[4,5-b]pyridin-7-yl)cyclopropane-1-carbonitrile], for which the 50% inhibitory concentration (IC50) at ATR kinase is less than 100 nM; in the experiment on LoVo (CCL-229) cells it was 15.9 nM.

Consider `Cc1cc(-c2ncc3c(C4(S(C)(=O)=O)CC4)cc(N4CCOC[C@H]4C)nn23)[nH]n1` [Example 31, (R)-3-methyl-4-(7-(3-methyl-1H-pyrazol-5-yl)-4-(1-(methylsulfonyl)cyclopropyl)imidazo[1,5-b]pyridazin-2-yl)morpholine], for which the half-maximal inhibitory concentration (IC50) was less than 100 nM on ATR kinase and 84 nM with LoVo (CCL-229) cells.

On to `C[C@@H]1COCCN1c1cc(C2(C#N)CCCC2)c2snc(-c3ccn[nH]3)c2n1` [Example 57, (R)-1-(5-(3-methylmorpholino)-3-(1H-pyrazol-5-yl)isothiazolo[4,5-b]pyridin-7-yl)cyclopentane-1-carbonitrile], for which the IC50 is less than 100 nM at ATR kinase and 2.5 nM in the experiment with LoVo (CCL-229) cells.

On to `C[C@@H]1COCCN1c1cc(C2(C#N)CCCCC2)c2snc(-c3ccn[nH]3)c2n1` [Example 58, (R)-1-(5-(3-methylmorpholino)-3-(1H-pyrazol-5-yl)isothiazolo[4,5-b]pyridin-7-yl)cyclohexane-1-carbonitrile], for which the IC50 at ATR kinase is less than 100 nM; in the experiment on LoVo (CCL-229) cells, less than 1 nM.

As to `C[C@@H]1COCCN1c1cc(S(=O)(=O)C2CC2)c2snc(-c3ccn[nH]3)c2n1` [Example 75, (R)-4-(7-(cyclopropylsulfonyl)-3-(1H-pyrazol-5-yl)isothiazolo[4,5-b]pyridin-5-yl)-3-methylmorpholine], the IC50 was less than 100 nM at ATR kinase and 15.3 nM in the experiment with LoVo (CCL-229) cells.

On to `Cc1cc(-c2nsc3c(C4(C(N)=O)CCCC4)cc(N4CCOC[C@H]4C)nc23)[nH]n1` [Example 87, (R)-1-(3-(3-methyl-1H-pyrazol-5-yl)-5-(3-methylmorpholino)isothiazolo[4,5-b]pyridin-7-yl)cyclopentane-1-carboxamide], for which the values for the IC50 on ATR kinase and with LoVo (CCL-229) cells were less than 100 nM and 3 nM, respectively.

As to `Cc1cc(-c2cnn3c(C4(S(C)(=O)=O)CC4)cc(N4CCOC[C@H]4C)nc23)[nH]n1` [Example 11, (R)-3-methyl-4-(3-(3-methyl-1H-pyrazol-5-yl)-7-(1-(methylsulfonyl)cyclopropyl)pyrazolo[1,5-a]pyrimidin-5-yl)morpholine], the IC50 is less than 100 nM on ATR kinase and 384 nM in the experiment on LoVo (CCL-229) cells.

Consider `CS(=O)(=O)C1(c2cc(N3C[C@H]4CC[C@@H](C3)O4)nn3c(-c4ccn[nH]4)ncc23)CC1` [Example 32, (1R,5S)-3-(4-(1-(methylsulfonyl)cyclopropyl)-7-(1H-pyrazol-5-yl)imidazo[1,5-b]pyridazin-2-yl)-8-oxa-3-azabicyclo[3.2.1]octane], for which the IC50 on ATR kinase is less than 100 nM; in the experiment with LoVo (CCL-229) cells, 553 nM.

For the compound `Cc1cc(-c2nsc3c(C4(C#N)CCCCC4)cc(N4CCOC[C@H]4C)nc23)[nH]n1` [Example 81, (R)-1-(3-(3-methyl-1H-pyrazol-5-yl)-5-(3-methylmorpholino)isothiazolo[4,5-b]pyridin-7-yl)cyclohexane-1-carbonitrile], the IC50 on ATR kinase was less than 100 nM; with LoVo (CCL-229) cells, 10 nM.

On to `Cc1cc(-c2ncc3c(C4(C#N)CC4)cc(N4CCOC[C@H]4C)nn23)[nH]n1` [Example 63, (R)-1-(7-(3-methyl-1H-pyrazol-5-yl)-2-(3-methylmorpholino)imidazo[1,5-b]pyridazin-4-yl)cyclopropane-1-carbonitrile], for which the figures for the IC50 on ATR kinase and in the experiment with LoVo (CCL-229) cells were less than 100 nM and 38.9 nM, respectively.

Turning to `C[C@@H]1COCCN1c1cc(C2(C#N)CCOCC2)c2snc(-c3ccn[nH]3)c2n1` [Example 83, (R)-4-(5-(3-methylmorpholino)-3-(1H-pyrazol-5-yl)isothiazolo[4,5-b]pyridin-7-yl)tetrahydro-2H-pyran-4-carbonitrile], the concentration for half-maximal inhibition (IC50) was less than 100 nM on ATR kinase and 14 nM in the experiment on LoVo (CCL-229) cells.

As to `Cc1cc(-c2nsc3c(-c4c(C)nnn4C)cc(N4CCOC[C@H]4C)nc23)[nH]n1` [Example 48, (R)-4-(7-(1,4-dimethyl-1H-1,2,3-triazol-5-yl)-3-(3-methyl-1H-pyrazol-5-yl)isothiazolo[4,5-b]pyridin-5-yl)-3-methylmorpholine], the IC50 at ATR kinase was less than 100 nM; in the experiment on LoVo (CCL-229) cells, 33.3 nM.

In the case of `C[C@@H]1COCCN1c1cc(C2(C(N)=O)CCCCC2)c2snc(-c3ccn[nH]3)c2n1` [Example 89, 1-{5-[(3R)-3-methylmorpholin-4-yl]-3-(1H-pyrazol-5-yl)-[1,2]thiazolo[4,5-b]pyridin-7-yl}cyclohexane-1-carboxamide], the 50% inhibitory concentration (IC50) on ATR kinase was less than 100 nM; in the experiment with LoVo (CCL-229) cells, less than 1 nM.

For the compound `C[C@@H]1COCCN1c1cc(C(C)(C)C#N)c2snc(-c3ccn[nH]3)c2n1` [Example 53, (R)-2-methyl-2-(5-(3-methylmorpholino)-3-(1H-pyrazol-5-yl)isothiazolo [4,5-b]pyridin-7-yl)propanenitrile], the values for the IC50 at ATR kinase and in the experiment with LoVo (CCL-229) cells were less than 100 nM and 12.8 nM, respectively.

Take `C[C@@H]1COCCN1c1cc(C2(S(C)(=O)=O)CC2)n2ncc(-c3cc[nH]c3)c2n1` [Example 9, (R)-3-methyl-4-(7-(1-(methylsulfonyl)cyclopropyl)-3-(1H-pyrrol-3-yl)pyrazolo[1,5-a]pyrimidin-5-yl)morpholine]: on ATR kinase, the IC50 is less than 100 nM.

On to `C[C@@H]1COCCN1c1cc(-c2ccnn2C)n2ncc(-c3cn[nH]c3)c2n1` [Example 2, (R)-3-methyl-4-(7-(1-methyl-1H-pyrazol-5-yl)-3-(1H-pyrazol-4-yl)pyrazolo [1,5-a]pyrimidin-5-yl)morpholine], for which the IC50 at ATR kinase was greater than 500 nM.

On to `C[C@@H]1COCCN1c1cc(C2([S@@](C)(=N)=O)CC2)n2ncc(-c3ccn[nH]3)c2n1` [Example 7b, (S)-imino(methyl)(1-(5-((R)-3-methylmorpholino)-3-(1H-pyrazol-5-yl)pyrazolo[1,5-a]pyrimidin-7-yl)cyclopropyl)-λ6-sulfanone], for which, on ATR kinase, the IC50 is less than 100 nM.

On to `C[C@@H]1COCCN1c1cc(-c2ccnn2C)n2ncc(-c3ccc[nH]3)c2n1` [Example 4, (R)-3-methyl-4-(7-(1-methyl-1H-pyrazol-5-yl)-3-(1H-pyrrol-2-yl)pyrazolo[1,5-a]pyrimidin-5-yl)morpholine], for which the IC50 at ATR kinase is less than 100 nM.

For `C[C@@H]1COCCN1c1cc(-c2ccnn2C)c2ncc(-c3ccn[nH]3)n2n1` [Example 21, (R)-3-methyl-4-(8-(1-methyl-1H-pyrazol-5-yl)-3-(1H-pyrazol-5-yl)imidazo[1,2-b]pyridazin-6-yl)morpholine], the IC50 on ATR kinase is less than 100 nM.

`CCP(=O)(CC)c1cc(N2CCOC[C@H]2C)nn2c(-c3ccn[nH]3)ncc12` [Example 39, (3R)-4-[4-(diethylphosphoryl)-7-(1H-pyrazol-5-yl)imidazo[1,5-b]pyridazin-2-yl]-3-methylmorpholine]: the IC50 at ATR kinase was less than 100 nM.

Regarding `Cc1cn[nH]c1-c1cnn2c(C3(S(C)(=O)=O)CC3)cc(N3CCOC[C@H]3C)nc12` [Example 14, (R)-3-methyl-4-(3-(4-methyl-1H-pyrazol-5-yl)-7-(1-(methylsulfonyl)cyclopropyl)pyrazolo[1,5-a]pyrimidin-5-yl)morpholine], the IC50 on ATR kinase was greater than 500 nM.
